Reference: patent US20260258025A1, “INHIBITORS OF TDP-43 AND TAU AGGREGATION” (Aquinnah Pharmaceuticals, inc., priority 2023, published 2026)

Tested on: TDP-43 aggregation
Assay: TDP-43 aggregation assay in SY5Y TDP-43WT cells (high content imaging)
Type: cell-based
Conditions: Homo sapiens, tetracycline induction 24 hrs, 1 hour compound pre-treatment, sodium arsenite 23 hrs, 8-point dose curve, percentage of cells with TDP-43 aggregates, read-out: IC50, Inhibition of TDP-43 Aggregation
Summary of the method: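 Tetracycline-inducible eGFP-tagged wild-type human TDP-43 in SH-SY5Y cells, induced 24 h ([…]), compound pre-treated 1 h, then sodium arsenite […] for 23 h. Fixed cells imaged; percentage of DAPI-counted cells with aggregates gives IC50 from 8-point curves.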

| IC50 [µM] | SMILES |
| --- | --- |
| < 0.5 | N[C@H]1CCN(C(=O)c2sc(-c3ccc(C4CCN(C5CCOCC5)CC4)c(F)c3)cc2Cl)C1 [Compound 295, (S)-(3-aminopyrrolidin-1-yl)(3-chloro-5-(3-fluoro-4-(1-(tetrahydro-2H-pyran-4-yl)piperidin-4-yl)phenyl)thiophen-2-yl)methanone] |
| < 0.5 | Cc1cc(-c2ccc(C3CCN(C4CCOCC4)CC3)c(F)c2)sc1C(=O)N1CC[C@H](N)C1 [Compound 296, (S)-(3-aminopyrrolidin-1-yl)(5-(3-fluoro-4-(1-(tetrahydro-2H-pyran-4-yl)piperidin-4-yl)phenyl)-3-methylthiophen-2-yl)methanone] |

Tested on: tau stress granules
Assay: SY5Y-tT1 tau arsenite assay (tau stress granules per cell)
Type: cell-based
Conditions: SY5Y-tT1 cells, 2 hours compound, 90 minutes arsenite, 50% reduction of granules per cell, read-out: IC50, Inhibitor Activity of Tau Stress Granules
Protocol: Example 91: In Vitro Efficacy Assay of Exemplary Compounds—SY5Y-tT1 Tau Arsenite/Thapsigargin Assay
• Before harvesting cells—checked to see if cells are ~80% confluency in their flask • 1. Aspirated growth media from flask. • 2. Added 4 mL of (0.25%) trypsin-EDTA (REF: 25200-056) • 3. Placed in 37° C. incubator for 5 minutes. • 4. Removed from incubator and added 11 mL growth media, washing any remaining cells adhered to the bottom of the flask. • 5. Transferred cell containing media to a 50 mL conical tube and spun for 5 minutes at 800 rpm. • 6. Aspirated supernatant and added 5 mL of growth media to cell pellet, triturating to make a homogenous cell solution. • 7. After counting cells, followed one of these plating paradigms: • (A) If treating with arsenite, plated cells at […] with tetracycline solution (5 mg/mL) added to cell solution at 1:5000 • (B) If treating with thapsigargin, plated cells at 4,000 cells/well with tetracycline solution (5 mg/mL) added to cell solution at 1:5000 • 8. Incubated at 37° C. for 48 hours.
• Solubilized all compounds to 10 mM prior to making dilution plates • 1. To a 96-well U-bottom plate (Falcon Non-Tissue Culture Treated Plates REF: 351177) added 120 μL growth media to all 96 wells, with an additional 58.2 μL to row A. • 2. Added 1.8 μL of 10 mM compound stock to wells A1-11, adding 1.8 μL of 10 mM PERKi stock (Selleck Chemistry GSK2606414 Cat No. S7307) as the control. • 3. Serially diluted 60 μL from row A down through each row, finishing with 180 μL total volume in row H. • 4. Transferred 12.5 μL of each dilution plate well to the correlating wells in cell plate, being careful not to touch cells adhered to bottom of the plate. • 5. Incubated for 2 hours.
• 1. Added 720 μL of 0.05 M sodium arsenite solution (CAS #: 7784-46-5) to 10 mL of growth media for a final concentration of […] arsenite solution, mix well. • 2. Added 12.5 μL of arsenite solution to all wells of compounds treated plate intended for arsenite treatment. • 3. Incubated at 37° C. for 90 minutes.
• Before beginning this part of the protocol: • Made 1×PBS by diluting 10× stock (10×, Phosphate buffered saline, Fisher #BP399— • 4) in sterile deionized water. • Diluted paraformaldehyde (16% Paraformaldehyde solution, Electron Microscopy Sciences #15710-S) to 4% in 1×PBS. • Diluted Hoechst stain (Life Technologies #H3570) 1:10,000 in 1×PBS (1 μL Hoechst per 10 mL 1×PBS). • Both solutions were protected from light. • 1) After compound treatment, aspirated media from cell plates and gently added in 50 μL of 4% paraformaldehyde for 10 min protected from light at room temperature. • 2) Aspirated paraformaldehyde solution and gently added 50 μL of 1:10,000 Hoechst solution to each well and incubated for 10 min protected from light at room temperature. • 3) Aspirated Hoechst solution and gently added 100 μL 1×PBS. Cover the plate with aluminum film (VWR #60941-126). • 4) Stored at 4° C. or used immediately for imaging on ThermoFisher CX7 imager.
Exemplary compounds of the disclosed herein were evaluated for efficacy for inhibitor activity of tau stress granules in the arsenite assay and quantified as drug concentration providing a 50% reduction (IC50) of granules per cell is shown in Table 4.
In Table 4 below, A indicates an IC50 (μM)<0.5 μM, B indicates an IC50 (μM) 0.5 μM to <1 μM, C indicates an IC50 (μM) 1 μM to <2 μM, and D indicates an IC50 (μM) 2 μM to <6 μM.

| IC50 [µM] | SMILES |
| --- | --- |
| < 0.5 | C=CCc1cc(-c2ccc(C3CCN(C(C)C)CC3)cc2)sc1C(=O)N1CC[C@H](N)C1 [Compound 109, (S)-(3-allyl-5-(4-(1-isopropylpiperidin-4-yl)phenyl)thiophen-2-yl)(3-aminopyrrolidin-1-yl)methanone] |
| 2 to 6 | COc1cc(-c2cc(C)c(C(=O)N3CC[C@H](N)C3)s2)ccc1C1CCN(C)CC1 [Compound 111, (S)-(3-aminopyrrolidin-1-yl)(5-(3-methoxy-4-(1-methylpiperidin-4-yl)phenyl)-3-methylthiophen-2-yl)methanone] |
| 1 to 2 | CCc1cc(-c2ccc(C3CCN(C(C)C)CC3)cc2)sc1C(=O)N1CC[C@H](N)C1 [Compound 118, (S)-(3-aminopyrrolidin-1-yl)(3-ethyl-5-(4-(1-isopropylpiperidin-4-yl)phenyl)thiophen-2-yl)methanone] |
| 0.5 to 1 | Cc1cc(-c2ccc(C3CCN(CC4CCCCO4)CC3)cc2)sc1C(=O)N1CC[C@H](N)C1 (stereo partly drawn) [Compound 119, ((S)-3-aminopyrrolidin-1-yl)(3-methyl-5-(4-(1-((tetrahydro-2H-pyran-2-yl)methyl)piperidin-4-yl)phenyl)thiophen-2-yl)methanone] |
| 1 to 2 | Cc1cc(-c2ccc(C3CCN(C)CC3)cc2Cl)sc1C(=O)N1CC[C@H](N)C1 [Compound 120, (S)-(3-aminopyrrolidin-1-yl)(5-(2-chloro-4-(1-methylpiperidin-4-yl)phenyl)-3-methylthiophen-2-yl)methanone] |
| < 0.5 | Cc1cc(-c2cnc(C3CCN(C)CC3)nc2)sc1C(=O)N1CC[C@H](N)C1 [Compound 124, (S)-(3-aminopyrrolidin-1-yl)(3-methyl-5-(2-(1-methylpiperidin-4-yl)pyrimidin-5-yl)thiophen-2-yl)methanone] |
| 1 to 2 | Cc1cc(-c2ccc(C3CCN(C)CC3)cc2F)sc1C(=O)N1CC[C@H](N)C1 [Compound 128, (S)-(3-aminopyrrolidin-1-yl)(5-(2-fluoro-4-(1-methylpiperidin-4-yl)phenyl)-3-methylthiophen-2-yl)methanone] |
| 2 to 6 | Cc1cc(-c2ccc(C3CCNCC3)cc2F)sc1C(=O)N1CC[C@H](N)C1 [Compound 129, (S)-(3-aminopyrrolidin-1-yl)(5-(2-fluoro-4-(piperidin-4-yl)phenyl)-3-methylthiophen-2-yl)methanone] |
| 2 to 6 | Cc1cc(C2CCN(C)CC2)ccc1-c1cc(C)c(C(=O)N2CC[C@H](N)C2)s1 [Compound 134, (S)-(3-aminopyrrolidin-1-yl)(3-methyl-5-(2-methyl-4-(1-methylpiperidin-4-yl)phenyl)thiophen-2-yl)methanone] |
| 2 to 6 | Cc1cc(-c2ccc(C3CCN(C)CC3)c(Cl)c2)sc1C(=O)N1CC[C@H](N)C1 [Compound 135, (S)-(3-aminopyrrolidin-1-yl)(5-(3-chloro-4-(1-methylpiperidin-4-yl)phenyl)-3-methylthiophen-2-yl)methanone] |

More lines, now with the values behind:

| SMILES | IC50 [µM] |
| --- | --- |
| Cc1cc(-c2ccc(C3CCN(C)CC3)cc2OC(F)(F)F)sc1C(=O)N1CC[C@H](N)C1 [Compound 103, (S)-(3-aminopyrrolidin-1-yl)(3-methyl-5-(4-(1-methylpiperidin-4-yl)-2-(trifluoromethoxy)phenyl)thiophen-2-yl)methanone] | 2 to 6 |
| Cc1cc(-c2ccc(C3CCN(C)CC3)cn2)sc1C(=O)N1CC[C@H](N)C1 [Compound 104, (S)-(3-aminopyrrolidin-1-yl)(3-methyl-5-(5-(1-methylpiperidin-4-yl)pyridin-2-yl)thiophen-2-yl)methanone] | 1 to 2 |
| Cc1cc(-c2ccc(C3CCN(C)CC3)nc2)sc1C(=O)N1CC[C@H](N)C1 [Compound 108, (S)-(3-aminopyrrolidin-1-yl)(3-methyl-5-(6-(1-methylpiperidin-4-yl)pyridin-3-yl)thiophen-2-yl)methanone] | 0.5 to 1 |
| CCCc1cc(-c2ccc(C3CCN(C(C)C)CC3)cc2)sc1C(=O)N1CC[C@H](N)C1 [Compound 110, (S)-(3-aminopyrrolidin-1-yl)(5-(4-(1-isopropylpiperidin-4-yl)phenyl)-3-propylthiophen-2-yl)methanone] | 1 to 2 |
| Cc1cc(-c2ccc(C3CCN(C)CC3)c(OC(F)(F)F)c2)sc1C(=O)N1CC[C@H](N)C1 [Compound 112, (S)-(3-aminopyrrolidin-1-yl)(3-methyl-5-(4-(1-methylpiperidin-4-yl)-3-(trifluoromethoxy)phenyl)thiophen-2-yl)methanone] | 2 to 6 |
| C=Cc1cc(-c2ccc(C3CCN(C(C)C)CC3)cc2)sc1C(=O)N1CC[C@H](N)C1 [Compound 117, (S)-(3-aminopyrrolidin-1-yl)(5-(4-(1-isopropylpiperidin-4-yl)phenyl)-3-vinylthiophen-2-yl)methanone] | 1 to 2 |
| Cc1cc(-c2ccc(C3CCNCC3)c(F)c2)sc1C(=O)N1CC[C@H](N)C1 [Compound 140, (S)-(3-aminopyrrolidin-1-yl)(5-(3-fluoro-4-(piperidin-4-yl)phenyl)-3-methylthiophen-2-yl)methanone] | 0.5 to 1 |
| Cc1cc(-c2cc(C)c(C(=O)N3CC[C@H](N)C3)s2)ccc1C1CCN(C)CC1 [Compound 144, (S)-(3-aminopyrrolidin-1-yl)(3-methyl-5-(3-methyl-4-(1-methylpiperidin-4-yl)phenyl)thiophen-2-yl)methanone] | 2 to 6 |
| Cc1cc(-c2ccc(C3CCN(CC4CCOCC4)CC3)cc2)sc1C(=O)N1CC[C@H](N)C1 [Compound 147, (S)-(3-aminopyrrolidin-1-yl)(3-methyl-5-(4-(1-((tetrahydro-2H-pyran-4-yl)methyl)piperidin-4-yl)phenyl)thiophen-2-yl)methanone] | < 0.5 |
| Cc1cc(-c2ccc(N3CCN(C4CCCCC4)CC3)cc2)sc1C(=O)N1CC[C@H](N)C1 [Compound 148, (S)-(3-aminopyrrolidin-1-yl)(5-(4-(4-cyclohexylpiperazin-1-yl)phenyl)-3-methylthiophen-2-yl)methanone] | 1 to 2 |
| Cc1cc(-c2cc(C)c(C(=O)N3CC[C@H](N)C3)s2)ccc1C1CCNCC1 [Compound 149, (S)-(3-aminopyrrolidin-1-yl)(3-methyl-5-(3-methyl-4-(piperidin-4-yl)phenyl)thiophen-2-yl)methanone] | < 0.5 |
| Cc1cc(-c2ccc(N3CCN(C4CCOCC4)CC3)cc2)sc1C(=O)N1CC[C@H](N)C1 [Compound 151, (S)-(3-aminopyrrolidin-1-yl)(3-methyl-5-(4-(4-(tetrahydro-2H-pyran-4-yl)piperazin-1-yl)phenyl)thiophen-2-yl)methanone] | 2 to 6 |
